From patent US20030216319A1, “Specific autoimmune reactions against isomerised/optically inverted epitopes: application for treatment of autoimmune diseases” (priority 2000, published 2003)
*1 amine or outer side, *2 acyl side, *3 side chain or, on linkers, in order; H or OH if unused. Where no end group is shown, it is not given here. [ ]: non-standard residue; d: D form. βAsp = O=C(O)[C@H](CC(=O)[*:2])N[*:1]

Experiments:
[1] = test system: auto-antibodies in RA sera; assay: ELISA detection of auto-antibodies in sera on Thy-GA-peptide conjugate coated plates (Example 2); type: binding, human; conditions: sera diluted one-hundred fold; MTP coated with Thy-GA conjugate 10 μg/ml; absorbency at 450 nm
From the text: It was investigated whether auto-antibodies would recognise an Asn-315 derived septa-peptide and whether such auto-antibodies are a characteristic feature of rheumatoid arthritis. In order to carry out such investigations the IgG Fc Asn-315 derived (βL) septa-peptide Trp-Leu-Asp-β-Gly-Lys-Glu-Tyr, was manufactured synthetically. The peptide used was a preparation of linear (αL form) Trp-Leu-Asn-Gly-Lys-Glu-Tyr peptide heated to promote isomerisation by the following procedure. The peptide was dissolved in the buffer and heated for 4 hours at 90° C. to promote isomerisation and/or optical inversion. The resulting mix of isomerised (βL) optically inverted (αD and βD) and linear (αL) peptides were analysed by RP-HPLC using a 15-35% acetonitrile gradient in 0.1% TFA over 10 minutes with a flow rate of 1 ml/min, and the isomerisation status of the resulting peaks were studied by amino-acid analysis as described above. This peptide was dissolved at 5 mg/ml in 0.2 M Na-Phosphate pH 9.2. […]
0.5 ml thyroglobulin (30 mg/ml) in 0.1 M Na-phosphate buffer pH 8.0, was added drop-wise (over 2 minutes) and under constant mixing to 0.5 mL of the following solution: 10% GA, 40% H2O, 50% 0.2 M Na-Phosphate pH 8.0. […] The final volume was adjusted to 1500 μL and the protein concentration was determined by a BioRad protein assay performed according to the manufacturers instructions. […]

[2] = test system: auto-antibodies reactive with isomerised IgG Fc Asn-315 derived peptides; assay: Homogeneous RIA with 125I Thy-GA-Trp-Leu-*Asx-Gly-Lys-Glu-Tyr tracer, competition with peptides (Example 4); type: binding, human; conditions: highest concentration (10,000 ng/ml); P-0.01 by Student's T-Test
Description: A homogeneous RIA assay was developed for measurement of auto-antibodies with reactivity towards the isomerised form of the epitope Trp-Leu-Asn-Gly-Lys-Glu-Tyr derived from the IgG CH2 region. The assay was performed by incubating serum samples with ^125I Thy-GA-Trp-Leu-*Asx-Gly-Lys-Glu-Tyr overnight followed by precipitation of immune-complexes with protein A Sepharose.
Serum samples are diluted 1:200 in IMP buffer (IMP-buffer: 10 mm Na-Phosphate, pH 7.4, 140 mM NaCl, 5 mM EDTA, 0.5% Triton X-100, 0.1% BSA, 10 μg/ml soy-bean trypsin inhibitor). A Thy-GA-Trp-Leu-*Asx-Gly-Lys-Glu-Tyr conjugate is prepared as described in example 2 and iodinated with ^125I using the chloramine T protocol: 100 μg of the conjugate is diluted in 0.25 M Na2HPO4 to a total volume of 140 μl. 1.5 mCi Na^125I is added followed by 10 μL Chloramin-T (1 mg/ml, prepared freshly). The solution is vortexed for 30 seconds and 150 μL methionine (1 mg/ml) is added and immediately vortexed for 120 sec. The tracer is purified on size exclusion column (type: BIOSEP SEC S-2000, size: 300×7.80 mm) equilibrated with PBS containing 1% BSA Plow rate 1.0 ml/min. 500 μl fractions are collected and analysed in a scintillation counter (γ-counter). The fractions containing the tracer are pooled and used in the homogeneous RIA assay format. […]

RA autoantibodies = assay: Competition ELISA: binding of RA autoantibodies to Thy-GA-Trp-Leu-*Asx-Gly-Lys-Glu-Tyr coated plates (Example 3); design: species or system human; conditions: competitor 50 μl of 50 μg/ml pre-incubated with serum 17 hours at 4° C.; 6 RA sera
Description: The Thy-GA-Trp-Leu-*Asx-Gly-Lys-Glu-Tyr conjugate was dissolved in PBS to a final concentration of 10 μg/ml, and 100 μL of this solution is pipetted into the wells of a micro-titre-plate (MTP, flat-well polysorb, Nunc). the plate was blocked as described (Bonde et al 1994), and serum samples diluted one-hundred fold in 10 mM Na-phosphate, 140 mM NaCl, 0.1% tween-20, 1% BSA pH 7.4 (assay buffer) were added. The MTP was left for one hour ±5 minutes on a rotary shaker at 20° C. The plates were washed five times in washing buffer (25 mM tris, 140 mM NaCl, 0.1% tween-20 pH 7.4), by a manual plate washer. One-hundred μL assay buffer containing a one-thousand fold dilution of Perxidase conjugated rabbit anti human λ-chains (Dako 063) and κ-chains (Dako 013) was added into each well. The MTP was again incubated for one hour ±5 minutes on a rotary mixer at 20° C. After 5 times washing, 100 μl of peroxidase substrate was added (3,3′,5,5′ tetramethylbenzidine dihydrochloride (TMB), Kirkegaard & Perry Laboratories, USA) and incubated for 15±2 minutes at room temperature (18-22° C.) in the dark. After addition of 0.18 M H2SO4, the absorbency was measured at 450 nm.
The experiment was carried out as follows. Serum samples were diluted one-hundred fold in 10 mM Na-phosphate, 140 mM NaCl, 0.1% tween-20, 1% BSA pH 7.4 (assay buffer). Two-hundred μl was added to 1.5 ml polypropylene tubes followed by addition of 50 μl of the following reagents dissolved in assay buffer at a concentration of 50 μg/ml:
The tubes were placed at 4° C. for 17 hours, and one-hundred μl of the mixture was added into MTP coated with Thy-GA-Trp-Leu-*Asx-Gly-Lys-Glu-Tyr conjugate. The assay was performed as described above under example 2.

Lewis rats [3] = assay: Oral tolerance: feeding of isoAspartyl MBP87-99 before EAE induction (Example 8); type: in vivo, rat
Description: 32 female Lewis (L haplotype, Harlan) rats, 8 weeks of age were used in the experiment.
Animals were immunised with the iso-aspartyl form of MBP87-99. Peptides were dissolved in PBS (2 mg/). The peptide solution was mixed 1:1 with CFA supplemented with Mycobacterium tubercolosum H37RA, 4 mg/ml and mixed until an emulgate was formed. 200 μl emulgate was injected per rat, intra-dermally (i.d.) in the root of the tail (containing 200 μg MBP87-99 and 400 μg Mycobacterium).
The solutions containing the MBP87-99 isoAspartyl peptides are fed to the animals using a plastic syringe. Control animals are given PBS alone. The effect of the oral administered peptide preparations is investigated at two dosing regimens (one dose 7 days before immunisation vs. 3 doses at one-week intervals before the immunisation. Furthermore, the effect of the dose of orally administered *Asx containing peptide on disease expression is investigated. Rats are fed various amounts of the peptide listed above 14 days before the day of immunisation (day −14) and at day −7 and 0 (day of immunisation). The rats are given either 25, 100 or 500 μg of the peptide, and eight rats are allocated to each treatment regimen as indicated in the table below.
The disease progression was monitored daily by scoring the neurological function in immunized animals as described in example 7. In addition animals were weighed daily. In addition, the animals were sacrificed sixteen days after immunisation for histopathological examination. The rat brains and spinal cords were dissected, fixed in 70% ethanol, containing 5% acetic acid and 4% formalin, dehydrated and embedded in paraffin. Multiple 5 μm thick section were prepared from cerebellum, brain stem, spinal cord C1-4 and L1-6 and stained with hematoxylin-eosin. The frequency of inflammatory infiltrates were scored, using hematoxylineosin stained section, as follows: 0 No inflammation, 1 small number of perivascular infiltration present in the tissue, 2 inflammation with several perivascular infiltrates, and 3 several perivascular infiltrates and tissue necrosis. […]

Lewis rats [4] = assay: Induction of Experimental Autoimmune Encephalomyelitis by immunisation with MBP87-99 peptides (Example 7); type: in vivo, rat; conditions: for incidence of full-blown EAE (clinical score ≧2) / time of minimum weight / reduction of weight compared to PBS controls at minimum: Lewis rats, 200 μg peptide in CFA i.d.; for reduction of weight compared to PBS controls at minimum: 16 days post immunization
From the text: Experimental Autoimmune Encephalomyelitis (EAE) is a paralytical central nervous system (CNS) disease that can be induced readily in susceptible animals by immunisation with myelin proteins. In this experiment MBP87-99 peptides (VHFFKNIVTPRTP) in linear and isomerised forms were used for induction of clinical EAE in Lewis rats.
36 female Lewis (L haplotype, Harlan) rats, 8 weeks of age were used in the experiment.
The animals were randomly assigned to one of the following three treatment groups: 1) a group receiving Asn or isoAsp MBP87-99 peptides 2) a positive control group receiving whole guinea pig MBP, and a negative control receiving PBS. The study was performed in a blinded fashion where the observer was unaware of the treatment of the animal. Below a detailed description of the three treatment groups is provided.
1) MBP87-99 Group: Peptides were dissolved in PBS (2 mg/ml). The peptide solution was mixed 1:1 with CFA supplemented with Mycobacterium tubercolosum H37RA, 4 mg/ml and mixed until an emulgate Wars formed. 200 μl emulgate was injected per rat, intra-dermally (i.d.) in the root of the tail (containing 200 μg MBP87-99 and 400 μg Mycobacterium).
The neurological function in immunised animals was evaluated daily. The evaluation was performed blinded by an observer unaware of the treatment groups and codes used in the experiment. This evaluation was performed daily, where the clinical signs of EAE were noted. The clinical signs of EAE were scored according to the following scale: grade 0=no clinical signs, grade 1=tail paralysis or unsteady gait, grade 2=hind leg paraparesis, grade 3=hind leg paralysis, grade 4=complete paralysis (tetraplegia) and grade 5 moribound state or death.
The weight of animals was also measured on a daily basis, as one of the earliest signs of EAE is a weight reduction. The weight of the MBP and peptide immunised animals was compared to the PBS control-group.

Row | Substance | autoantibody reactivity of RA RF+ sera compared with RA RF- and control sera (ELISA signal) [1] | competition of binding of RA autoantibodies to Thy-GA-Trp-Leu-*Asx-Gly-Lys-Glu-Tyr coated plates (RA autoantibodies) | incidence of full-blown EAE (clinical score ≧2) (Lewis rats [4]) [%] | time of minimum weight (Lewis rats [4]) [days post immunization] | reduction of weight compared to PBS controls at minimum (Lewis rats [4]) [%] | further results
1 | Thy-GA-Glu-Lys-Ala-His-*Asx-Gly-Gly-Arg: another irrelevant Thy-GA conjugate [reference compound] | no differentiation between the groups |  |  |  |  | 
2 | Trp-Leu-Asp-β-Gly-Lys-Glu-Tyr |  | able to compete out the binding |  |  |  | reactivity in competition RIA (percent inhibition by competing peptide), group basis [2]: significant reactivity
3 | isoAsp MBP87-99: MBP87-99 peptide (VHFFKNIVTPRTP) in isomerised form, Asn 92 giving iso-Asp (VHFFK[βAsp]IVTPRTP) |  |  | 25 | 16 | 19 | EAE development after multiple 500 μg oral feedings (Lewis rats [3]; 500 μg fed at days -14, -7 and 0): complete suppression; EAE development after multiple oral feedings (Lewis rats [3]; fed at days -14, -7 and 0 before immunisation with iso-aspartyl MBP87-99): complete suppression; mean histological score (number of inflammation foci) compared to controls (Lewis rats [3]; multiple oral doses, sixteen days after immunisation, P<0.05): significantly reduced; EAE induction (result in words) (Lewis rats [4]; onset, peak score day and score levels comparable to non-modified control peptide): induced significant EAE; clinical score of all animals affected with EAE (Lewis rats [4]; scale grade 0-5): ≥ 3
4 | VHFFKNIVTPRTP [Asn MBP87-99, non-modified MBP87-99 peptide, reference compound] |  |  | 75 | 16 | 26 | fraction of animals affected by EAE with relatively mild symptoms (clinical score <3) (Lewis rats [4]; scale grade 0-5): one third
5 | Trp-Leu-*Asx-Gly-Lys-Glu-Tyr | elevated autoantibody reactivity | could be competed out |  |  |  | 
